Measurements taken from US7935815B2, “Imidazoyl pyridine compounds and salts thereof” (Eisai R&D Management Co., Ltd., priority 2007, dated 2011).
Where two headings read alike, the source gives them in different places.

System: Aβ42 production
Test: Quantification of Aβ peptide in culture of neurons from rat fetus brain (Aβ ELISA)
Format: cell-based
Settings: rat primary neuronal culture (embryonic day 18 Wistar rat cerebral cortex), cultured three days after addition of compound, Aβx-42 ELISA of the medium, read-out: Aβ42 production reducing effect IC50
Summary of the method: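 Primary cortical neurons from E18 Wistar rat embryos were cultured 4 days on poly-lysine, then treated with compound in Neurobasal/B27 without 2-mercaptoethanol (final DMSO ≤1%) for 3 days. Conditioned medium was assayed undiluted by ELISA for Aβx-42, against DMSO-only controls.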

[1] = Rattus norvegicus, Neuron, 72 h

COc1cc(/C=C/c2nc3n(n2)CC[C@@H](C)[C@@H]3c2ccc(F)cc2)ccc1-n1cnc(C)c1 [Example 102, (7R,8R)-8-(4-fluorophenyl)-2-{(E)-2-[3-methoxy-4-(4-methyl-1H-imidazol-1-yl)phenyl]vinyl}-7-methyl-5,6,7,8-tetrahydro-[1,2,4]triazolo[1,5-a]pyridine]
IC50 [1]: 20 nM

COc1cc(/C=C/c2nc3n(n2)CC[C@H](O)[C@H]3c2cc(F)c(F)c(F)c2)ccc1-n1cnc(C)c1 [Example 103, (7S,8S)-2-{(E)-2-[3-methoxy-4-(4-methyl-1H-imidazol-1-yl)phenyl]vinyl}-8-(3,4,5-trifluorophenyl)-5,6,7,8-tetrahydro-[1,2,4]triazolo[1,5-a]pyridin-7-ol]
IC50 [1]: 32 nM

COc1cc(/C=C/c2nc3n(n2)CC[C@H](O)[C@@H]3c2cc(F)c(F)c(F)c2)ccc1-n1cnc(C)c1 [Example 106, (7S,8R)-2-{(E)-2-[3-methoxy-4-(4-methyl-1H-imidazol-1-yl)phenyl]vinyl}-8-(3,4,5-trifluorophenyl)-5,6,7,8-tetrahydro-[1,2,4]triazolo[1,5-a]pyridin-7-ol]
IC50 [1]: 39 nM

COc1cc(/C=C/c2nc3n(n2)C[C@@H](O)C[C@@H]3c2cc(F)c(F)c(F)c2)ccc1-n1cnc(C)c1 [Example 108, (6S,8R)-2-{(E)-2-[3-methoxy-4-(4-methyl-1H-imidazol-1-yl)phenyl]vinyl}-8-(3,4,5-trifluorophenyl)-5,6,7,8-tetrahydro-[1,2,4]triazolo[1,5-a]pyridin-6-ol]
IC50 [1]: 29 nM

COc1cc(/C=C/c2nc3n(n2)C[C@H](O)C[C@@H]3c2cc(F)c(F)c(F)c2)ccc1-n1cnc(C)c1 [Example 110, (6R,8R)-2-{(E)-2-[3-methoxy-4-(4-methyl-1H-imidazol-1-yl)phenyl]vinyl}-8-(3,4,5-trifluorophenyl)-5,6,7,8-tetrahydro-[1,2,4]triazolo[1,5-a]pyridin-6-ol]
IC50 [1]: 33 nM

COc1cc(/C=C/c2nc3n(n2)CCCCN3c2ccc(F)cc2)ccc1-n1cnc(C)c1 [Example 165, 8-(4-fluorophenyl)-2-{(E)-2-[3-methoxy-4-(4-methyl-1H-imidazol-1-yl)phenyl]vinyl}-5,6,7,8-tetrahydro-4H-1,3,3a,8-tetraazaazulene]
IC50 [1]: 115 nM

COc1nc(/C=C/c2nc3n(n2)CCCN3c2ccc(Cl)cc2)ccc1-n1cnc(C)c1 [Example 232, 4-(4-chlorophenyl)-2-{(E)-2-[6-methoxy-5-(4-methyl-1H-imidazol-1-yl)pyridin-2-yl]vinyl}-4,5,6,7-tetrahydro-[1,2,4]triazolo[1,5-a]pyrimidine]
IC50 [1]: 33 nM

COc1nc(/C=C/c2nc3n(n2)CCCN3c2ccccc2)ccc1-n1cnc(C)c1 [Example 233, 2-{(E)-2-[6-methoxy-5-(4-methyl-1H-imidazol-1-yl)pyridin-2-yl]vinyl}-4-phenyl-4,5,6,7-tetrahydro-[1,2,4]triazolo[1,5-a]pyrimidine]
IC50 [1]: 42 nM

COc1nc(/C=C/c2nc3n(n2)CC[C@H](C)N3c2ccc(F)cc2)ccc1-n1cnc(C)c1 [Example 236, (S)-4-(4-fluorophenyl)-2-{(E)-2-[6-methoxy-5-(4-methyl-1H-imidazol-1-yl)pyridin-2-yl]vinyl}-5-methyl-4,5,6,7-tetrahydro-[1,2,4]triazolo[1,5-a]pyrimidine]
IC50 [1]: 39 nM

COc1nc(/C=C/c2nc3n(n2)CCC[C@H]3c2ccc(F)c(F)c2F)ccc1-n1cnc(C)c1 [Example 339, (S)-2-{(E)-3-[6-methoxy-5-(4-methyl-1H-imidazol-1-yl)pyridin-2-yl]vinyl}-8-(2,3,4-trifluorophenyl)-5,6,7,8-tetrahydro-[1,2,4]triazole[1,5-a]pyridine]
IC50: 21 nM

COc1nc(/C=C/c2nc3n(n2)C(C)CCC3c2ccccc2C(F)(F)F)ccc1-n1cnc(C)c1 (stereo not drawn) [Example 361, 2-{(E)-2-[6-methoxy-5-(4-methyl-1H-imidazol-1-yl)pyridin-2-yl]vinyl}-5-methyl-8-(2-trifluoromethylphenyl)-5,6,7,8-tetrahydro-[1,2,4]triazolo[1,5-a]pyridine]
IC50 [1]: 12 nM

COc1nc(/C=C/c2nc3n(n2)C(C)CCC3c2ccccc2C(F)(F)F)ccc1-n1cnc(C)c1 (stereo not drawn) [Example 362, 2-{(E)-2-[6-methoxy-5-(4-methyl-1H-imidazol-1-yl)pyridin-2-yl]vinyl}-5-methyl-8-(2-trifluoromethylphenyl)-5,6,7,8-tetrahydro-[1,2,4]triazolo[1,5-a]pyridine]
IC50: 9 nM

COc1nc(/C=C/c2nc3n(n2)CCCC3c2cc(F)cc(F)c2)ccc1-n1cnc(C)c1 (stereo not drawn) [Example 365, 8-(3,5-difluorophenyl)-2-{(E)-2-[6-methoxy-5-(4-methyl-1H-imidazol-1-yl)pyridin-2-yl]vinyl}-5,6,7,8-tetrahydro-[1,2,4]triazolo[1,5-a]pyridine]
IC50: 21 nM

COc1nc(/C=C/c2nc3n(n2)CCOC3c2ccccc2C(F)(F)F)ccc1-n1cnc(C)c1 (stereo not drawn) [Example 368, 2-{(E)-2-[6-methoxy-5-(4-methyl-1H-imidazol-1-yl)pyridin-2-yl]vinyl}-8-(2-trifluoromethylphenyl)-5,6-dihydro-8H-[1,2,4]triazolo[5,1-c][1,4]oxazine]
IC50 [1]: 25 nM

COc1nc(/C=C/c2nc3n(n2)CCC(C)N3c2ccc(F)cc2F)ccc1-n1cnc(C)c1 (stereo not drawn) [Example 371, 4-(2,4-difluorophenyl)-2-{(E)-2-[6-methoxy-5-(4-methyl-1H-imidazol-1-yl)pyridin-2-yl]vinyl}-5-methyl-4,5,6,7-tetrahydro-[1,2,4]triazolo[1,5-a]pyrimidine]
IC50 [1]: 27 nM

COc1nc(/C=C/c2nc3n(n2)CCC(C)N3c2ccccc2C(F)(F)F)ccc1-n1cnc(C)c1 (stereo not drawn) [Example 373, 2-{(E)-2-[6-methoxy-5-(4-methyl-1H-imidazol-1-yl)pyridin-2-yl]vinyl}-5-methyl-4-(2-trifluoromethylphenyl)-4,5,6,7-tetrahydro-[1,2,4]triazolo[1,5-a]pyrimidine]
IC50 [1]: 29 nM

COc1nc(/C=C/c2nc3n(n2)CCC3c2ccccc2)ccc1-n1cnc(C)c1 (stereo not drawn) [Example 376, 2-{(E)-2-[6-methoxy-5-(4-methyl-1H-imidazol-1-yl)pyridin-2-yl]vinyl}-7-phenyl-6,7-dihydro-5H-pyrrolo[1,2-b][1,2,4]triazole]
IC50 [1]: 28 nM

COc1nc(/C=C/c2nc3n(n2)CCC3c2ccc(F)c(F)c2)ccc1-n1cnc(C)c1 (stereo not drawn) [Example 380, 7-(3,4-difluorophenyl)-2-{(E)-2-[6-methoxy-5-(4-methyl-1H-imidazol-1-yl)pyridin-2-yl]vinyl}-6,7-dihydro-5H-pyrrolo[1,2-b][1,2,4]triazole]
IC50 [1]: 29 nM

COc1nc(/C=C/c2nc3n(n2)CCC3c2cc(F)cc(F)c2)ccc1-n1cnc(C)c1 (stereo not drawn) [Example 384, 7-(3,5-difluorophenyl)-2-{(E)-2-[6-methoxy-5-(4-methyl-1H-imidazol-1-yl)pyridin-2-yl]vinyl}-6,7-dihydro-5H-pyrrolo[1,2-b][1,2,4]triazole]
IC50 [1]: 36 nM

COc1nc(/C=C/c2nc3n(n2)CCC3c2ccccc2C(F)(F)F)ccc1-n1cnc(C)c1 (stereo not drawn) [Example 390, 2-{(E)-2-[6-methoxy-5-(4-methyl-1H-imidazol-1-yl)pyridin-2-yl]vinyl}-7-(2-trifluoromethylphenyl)-6,7-dihydro-5H-pyrrolo[1,2-b][1,2,4]triazole]
IC50 [1]: 26 nM

COc1nc(/C=C/c2nc3n(n2)CCC3c2cc(F)ccc2C(F)(F)F)ccc1-n1cnc(C)c1 (stereo not drawn) [Example 392, 7-(5-fluoro-2-trifluoromethylphenyl)-2-{(E)-2-[6-methoxy-5-(4-methyl-1H-imidazol-1-yl)pyridin-2-yl]vinyl}-6,7-dihydro-5H-pyrrolo[1,2-b][1,2,4]triazole]
IC50 [1]: 22 nM
